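Exposure lasted 48 hours, with cells grown in 96-well plates and compounds tested at five concentrations. Abbreviation: GI50, concentration required for 50% inhibition of growth.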 The source made the active and inactive calls. No stated cut-off is given here; in the data, active = GI50 up to about 1.1 µM and inactive = higher.
Columns and labels:
Assay in all cases: NCI-60 cell line screen, 48 h
786-0 = system: 786-0
A498 = system: A498
A549 = system: A549
ACHN = system: ACHN
BT-549 = system: BT-549
CAKI-1 = system: CAKI-1
CCRF-CEM = system: CCRF-CEM
COLO 205 = system: COLO 205
DLD-1 = system: DLD-1
DMS-114 = system: DMS-114
DMS-273 = system: DMS-273
DU-145 = system: DU-145
EKVX = system: EKVX
HCC 2998 = system: HCC 2998
HCT-116 = system: HCT-116
HCT-15 = system: HCT-15
HL-60 = system: HL-60
HOP-18 = system: HOP-18
HOP-62 = system: HOP-62
HOP-92 = system: HOP-92
HT-29 = system: HT-29
Hs-578T = system: Hs-578T
IGROV-1 = system: IGROV-1
K562 = system: K562
KM-20L2 = system: KM-20L2
KM12 = system: KM12
LOX IMVI = system: LOX IMVI
M14 = system: M14
M19-MEL = system: M19-MEL
MCF7 = system: MCF7
MDA-MB-231 = system: MDA-MB-231
MDA-MB-435 = system: MDA-MB-435
MDA-N = system: MDA-N
MOLT-4 = system: MOLT-4
Malme-3M = system: Malme-3M
NCI-H226 = system: NCI-H226
NCI-H23 = system: NCI-H23
NCI-H460 = system: NCI-H460
NCI-H522 = system: NCI-H522
OVCAR-3 = system: OVCAR-3
OVCAR-4 = system: OVCAR-4
OVCAR-5 = system: OVCAR-5
OVCAR-8 = system: OVCAR-8
PC-3 = system: PC-3
RPMI-8226 = system: RPMI-8226
RXF 393 = system: RXF 393
SF-268 = system: SF-268
SF-295 = system: SF-295
SF-539 = system: SF-539
SK-MEL-28 = system: SK-MEL-28
SK-MEL-2 = system: SK-MEL-2
SK-MEL-5 = system: SK-MEL-5
SK-OV-3 = system: SK-OV-3
SN12C = system: SN12C
SNB-19 = system: SNB-19
SNB-75 = system: SNB-75
SNB-78 = system: SNB-78
SR = system: SR
SW-620 = system: SW-620
T47D = system: T47D
TK-10 = system: TK-10
U-251 = system: U-251
UACC-257 = system: UACC-257
UACC-62 = system: UACC-62
UO-31 = system: UO-31
XF498 = system: XF498
LXFL 529 = system: LXFL 529

CC(=O)OC1C(O)C(C)OC(OC2C(OC(=O)C3CCC4C(C3)OC3(CC(OC(=O)/C=C/c5ccccc5)C(C)CO3)C43CO3)OC(C)C(O)C2OC(C)=O)C1O (stereo unspecified)
GI50 (786-0): 0.0132 µM (active)
GI50 (A498): 0.0526 µM (active)
GI50 (A549): 0.0557 µM (active)
GI50 (ACHN): 0.0925 µM (active)
GI50 (BT-549): 0.00358 µM (active)
GI50 (CAKI-1): 0.285 µM (active)
GI50 (CCRF-CEM): 0.00351 µM (active)
GI50 (COLO 205): 0.0078 µM (active)
GI50 (DLD-1): 0.38 µM (active)
GI50 (DMS-114): 0.0251 µM (active)
GI50 (DMS-273): 0.0259 µM (active)
GI50 (DU-145): 0.0103 µM (active)
GI50 (EKVX): 0.0148 µM (active)
GI50 (HCC 2998): 0.00358 µM (active)
GI50 (HCT-116): 0.00661 µM (active)
GI50 (HCT-15): 0.718 µM
GI50 (HL-60): 0.00507 µM (active)
GI50 (HOP-18): 0.0906 µM (active)
GI50 (HOP-62): 0.00951 µM (active)
GI50 (HOP-92): 0.00581 µM (active)
GI50 (HT-29): 0.00689 µM (active)
GI50 (Hs-578T): 0.00124 µM (active)
GI50 (IGROV-1): 0.0134 µM (active)
GI50 (K562): 0.00622 µM (active)
GI50 (KM-20L2): 0.041 µM (active)
GI50 (KM12): 0.00912 µM (active)
GI50 (LOX IMVI): 0.00463 µM (active)
GI50 (M14): 0.00433 µM (active)
GI50 (M19-MEL): 0.0174 µM (active)
GI50 (MCF7): 0.00429 µM (active)
GI50 (MDA-MB-231): 0.0203 µM (active)
GI50 (MDA-MB-435): 0.000668 µM (active)
GI50 (MDA-N): 0.00269 µM (active)
GI50 (MOLT-4): 0.00468 µM (active)
GI50 (Malme-3M): 0.00507 µM (active)
GI50 (NCI-H226): 0.0142 µM (active)
GI50 (NCI-H23): 0.0123 µM (active)
GI50 (NCI-H460): 0.0131 µM (active)
GI50 (NCI-H522): 0.00284 µM (active)
GI50 (OVCAR-3): 0.0115 µM (active)
GI50 (OVCAR-4): 0.00752 µM (active)
GI50 (OVCAR-5): 0.0291 µM (active)
GI50 (OVCAR-8): 0.0352 µM (active)
GI50 (PC-3): 0.00513 µM (active)
GI50 (RPMI-8226): 0.00227 µM (active)
GI50 (RXF 393): 0.0319 µM (active)
GI50 (SF-268): 0.00849 µM (active)
GI50 (SF-295): 0.0262 µM (active)
GI50 (SF-539): 0.00736 µM (active)
GI50 (SK-MEL-28): 0.008 µM (active)
GI50 (SK-MEL-2): 0.00561 µM (active)
GI50 (SK-MEL-5): 0.00418 µM (active)
GI50 (SK-OV-3): 0.0145 µM (active)
GI50 (SN12C): 0.0203 µM (active)
GI50 (SNB-19): 0.00617 µM (active)
GI50 (SNB-75): 0.00867 µM (active)
GI50 (SNB-78): 0.056 µM (active)
GI50 (SR): 0.00258 µM (active)
GI50 (SW-620): 0.0111 µM (active)
GI50 (T47D): 0.00216 µM (active)
GI50 (TK-10): 0.0506 µM (active)
GI50 (U-251): 0.00679 µM (active)
GI50 (UACC-257): 0.0205 µM (active)
GI50 (UACC-62): 0.0108 µM (active)
GI50 (UO-31): 0.721 µM (active)
GI50 (XF498): 0.0357 µM (active)

[O-][S+](Cc1cnc2ccccc2c1)c1nc2ccccc2nc1-c1cccs1 (stereo unspecified)
GI50 (786-0): 13.2 µM (inactive)
GI50 (A549): 19.7 µM (inactive)
GI50 (ACHN): 13.6 µM (inactive)
GI50 (CCRF-CEM): 5.08 µM (inactive)
GI50 (COLO 205): 19.5 µM (inactive)
GI50 (DMS-114): 10.5 µM (inactive)
GI50 (DMS-273): 13.7 µM (inactive)
GI50 (EKVX): 6.31 µM (inactive)
GI50 (HCT-116): 10.6 µM (inactive)
GI50 (HL-60): 4.31 µM (inactive)
GI50 (HOP-18): 17.5 µM (inactive)
GI50 (HOP-92): 11.2 µM (inactive)
GI50 (HT-29): 16.6 µM (inactive)
GI50 (IGROV-1): 16.8 µM (inactive)
GI50 (K562): 7.46 µM (inactive)
GI50 (LXFL 529): 8.55 µM (inactive)
GI50 (M14): 15.1 µM (inactive)
GI50 (MOLT-4): 4.94 µM (inactive)
GI50 (Malme-3M): 19.2 µM (inactive)
GI50 (NCI-H226): 0.43 µM (active)
GI50 (NCI-H23): 14.9 µM (inactive)
GI50 (OVCAR-3): 19.7 µM (inactive)
GI50 (OVCAR-4): 10.5 µM (inactive)
GI50 (OVCAR-5): 13.5 µM (inactive)
GI50 (OVCAR-8): 17.5 µM (inactive)
GI50 (RPMI-8226): 25.4 µM (inactive)
GI50 (SF-268): 16.1 µM (inactive)
GI50 (SF-295): 25.5 µM (inactive)
GI50 (SF-539): 17.9 µM (inactive)
GI50 (SK-MEL-28): 16.9 µM (inactive)
GI50 (SK-OV-3): 29.2 µM (inactive)
GI50 (SN12C): 14.5 µM (inactive)
GI50 (SNB-19): 22.4 µM (inactive)
GI50 (SNB-75): 19.1 µM (inactive)
GI50 (SNB-78): 20.3 µM (inactive)
GI50 (U-251): 18.7 µM (inactive)
GI50 (UACC-257): 16 µM (inactive)
GI50 (UO-31): 14.8 µM (inactive)
GI50 (XF498): 4.06 µM (inactive)

O=C(O)Cc1cc(=O)[nH]c2c1C(=O)CCC2
GI50 (786-0): > 100 µM (inactive)
GI50 (ACHN): > 100 µM (inactive)
GI50 (CCRF-CEM): > 100 µM (inactive)
GI50 (COLO 205): > 100 µM (inactive)
GI50 (DLD-1): > 100 µM (inactive)
GI50 (DMS-273): > 100 µM (inactive)
GI50 (EKVX): > 100 µM (inactive)
GI50 (HCC 2998): > 100 µM (inactive)
GI50 (HCT-15): > 100 µM
GI50 (HL-60): > 100 µM (inactive)
GI50 (HOP-18): > 100 µM (inactive)
GI50 (HOP-92): > 100 µM (inactive)
GI50 (HT-29): > 100 µM (inactive)
GI50 (IGROV-1): > 100 µM (inactive)
GI50 (K562): > 100 µM (inactive)
GI50 (KM-20L2): > 100 µM (inactive)
GI50 (KM12): > 100 µM (inactive)
GI50 (LXFL 529): > 100 µM (inactive)
GI50 (M14): > 100 µM (inactive)
GI50 (M19-MEL): > 100 µM (inactive)
GI50 (MOLT-4): > 100 µM (inactive)
GI50 (Malme-3M): > 100 µM (inactive)
GI50 (NCI-H226): > 100 µM (inactive)
GI50 (NCI-H23): > 100 µM (inactive)
GI50 (NCI-H460): > 100 µM (inactive)
GI50 (NCI-H522): > 100 µM (inactive)
GI50 (OVCAR-3): > 100 µM (inactive)
GI50 (OVCAR-5): > 100 µM (inactive)
GI50 (OVCAR-8): > 100 µM (inactive)
GI50 (RPMI-8226): > 100 µM (inactive)
GI50 (RXF 393): > 100 µM (inactive)
GI50 (SF-268): > 100 µM (inactive)
GI50 (SF-295): > 100 µM (inactive)
GI50 (SK-MEL-28): > 100 µM (inactive)
GI50 (SK-MEL-2): > 100 µM (inactive)
GI50 (SK-MEL-5): > 100 µM (inactive)
GI50 (SK-OV-3): > 100 µM (inactive)
GI50 (SN12C): > 100 µM (inactive)
GI50 (SNB-19): > 100 µM (inactive)
GI50 (SR): > 100 µM (inactive)
GI50 (SW-620): > 100 µM (inactive)
GI50 (TK-10): > 100 µM (inactive)
GI50 (U-251): > 100 µM (inactive)
GI50 (UACC-257): > 100 µM (inactive)
GI50 (UO-31): > 100 µM (inactive)
GI50 (XF498): > 100 µM (inactive)
